From PMC7618597, “Dual Nurr1/RXR agonism of valerenic acid and synthetic mimetics enables dimer-selective Nurr1 modulation” (ACS medicinal chemistry letters, 2025)

Tested on: rat dopaminergic neuronal cells (N27)
Experiment: Nurr1-regulated gene expression (qPCR) in N27 cells
Assay type: cell-based
Procedure: Nurr1 is a key factor of neuroprotection and health of dopaminergic neurons. Therefore, we explored the impact of 2 (10 μM) and 3 (1 μM) on gene expression in rat dopaminergic neuronal cells (N27), which have been widely used to study Nurr1 agonists[17],[18],[38],[39]. Both compounds were non-toxic at the test concentrations in a multiplex toxicity assay (Figure S5). […] Modulation of Nurr1 LBD homodimerization and heterodimerization of the LDBs of Nurr1 and RXRα was investigated by HTRF as reported previously4. Nurr1 LBD or RXRα LBD proteins labeled with sGFP were titrated against a fixed concentration of Tb3+-cryptate as streptavidin conjugate ([…], Revvity) coupled to biotinylated Nurr1 LBD protein in the presence of test compounds at 30 μM or absence of compound as a negative control (apo). Assay solutions were prepared in buffer containing 25 mM HEPES pH 7.5, 150 mM KF, 5% (m/v) glycerol, 5 mM DTT, 0.1% (m/v) CHAPS and 1% DMSO. The FRET donor complex was formed from biotinylated Nurr1 LBD (final concentration 0.188 nM) and Tb-SA (0.375 nM) and was kept constant. For the homodimerization assay, the FRET acceptor consisted of sGFP-Nurr1 LBD, which was titrated from 0.5 μM, while free sGFP was added to keep the total GFP content stable at 0.5 μM. For the heterodimerization assay, the FRET acceptor sGFP-RXRα LBD was titrated from 6 μM, while free sGFP was added to keep a constant concentration of GFP at 6 μM. Samples were equilibrated at room temperature for 2 h and fluorescence intensities (FI) after excitation at 340 nm were recorded at 520 nm for sGFP acceptor fluorescence and at 620 for Tb-SA donor fluorescence on a SPARK plate reader (Tecan Group Ltd.). FI520 was divided by FI620 and multiplied by 10,000 to give a dimensionless HTRF signal. For dose-response curve fitting, the equation “[Agonist] versus response-variable slope (four parameters)” was used in GraphPad Prism ( version 9.5.1, GraphPad Software, La Jolla, CA). Evaluation of Nurr1-regulated gene expression. N27 rat dopaminergic neural cells (SCC048, Sigma-Aldrich, Darmstadt, Germany) were cultured in RPMI 1640 medium (Gibco, Thermo Fisher Scientific, Waltham, MA, USA) supplemented with 10% FCS, penicillin (100 U/mL), and streptomycin (100 μg/mL) at 37 °C and 5% and seeded in 12-well plates (3×10^5 cells/well). […] RNA concentration and purity were assessed using a NanoDrop One UV-vis spectrophotometer (Thermo Fisher Scientific) at 260/280 nm. […]

Row | Compound | mRNA expression of TH, FLRT2, BDNF, CRMP4 (1 μM) | mRNA expression of XIAP, SESN3, CCND2, BIRC5, SOD2 (1 μM) | mRNA expression of TH, FLRT2, BDNF, CRMP4 (10 μM) | mRNA expression of XIAP, SESN3, CCND2, BIRC5, SOD2 (10 μM)
1 | Cc1c(C)n(-c2ccc(CC(=O)O)cc2)c2ccc(F)cc12 [compound 3] | robustly upregulated | not induced | – | –
2 | Cc1c2c(n(-c3ccc(CC(=O)O)cc3)c1C)CCC(F)(F)C2 [compound 2] | – | – | robustly upregulated | not induced
